The results in this text go back to patent publication US20120214846A1, “HEXAHYDROCYCLOPENTYL[F]INDAZOLE PYRIDYL ETHANOLS AND DERIVATIVES THEREOF AS SELECTIVE GLUCOCORTICOID RECEPTOR MODULATORS” (MERCK SHARP & DOHME CORP, priority 2009, published 2012).

In brackets after ≈: the same amount, converted by molar mass. Read-outs that look alike come from different tables or passages of the source.

The nature of data set [1]: Solubility at pH 2. In kind it is physicochemical.
Data set [2] concerns the target T1, GR (Homo sapiens, UniProt P04150).
T1 sequence (P04150 1-777): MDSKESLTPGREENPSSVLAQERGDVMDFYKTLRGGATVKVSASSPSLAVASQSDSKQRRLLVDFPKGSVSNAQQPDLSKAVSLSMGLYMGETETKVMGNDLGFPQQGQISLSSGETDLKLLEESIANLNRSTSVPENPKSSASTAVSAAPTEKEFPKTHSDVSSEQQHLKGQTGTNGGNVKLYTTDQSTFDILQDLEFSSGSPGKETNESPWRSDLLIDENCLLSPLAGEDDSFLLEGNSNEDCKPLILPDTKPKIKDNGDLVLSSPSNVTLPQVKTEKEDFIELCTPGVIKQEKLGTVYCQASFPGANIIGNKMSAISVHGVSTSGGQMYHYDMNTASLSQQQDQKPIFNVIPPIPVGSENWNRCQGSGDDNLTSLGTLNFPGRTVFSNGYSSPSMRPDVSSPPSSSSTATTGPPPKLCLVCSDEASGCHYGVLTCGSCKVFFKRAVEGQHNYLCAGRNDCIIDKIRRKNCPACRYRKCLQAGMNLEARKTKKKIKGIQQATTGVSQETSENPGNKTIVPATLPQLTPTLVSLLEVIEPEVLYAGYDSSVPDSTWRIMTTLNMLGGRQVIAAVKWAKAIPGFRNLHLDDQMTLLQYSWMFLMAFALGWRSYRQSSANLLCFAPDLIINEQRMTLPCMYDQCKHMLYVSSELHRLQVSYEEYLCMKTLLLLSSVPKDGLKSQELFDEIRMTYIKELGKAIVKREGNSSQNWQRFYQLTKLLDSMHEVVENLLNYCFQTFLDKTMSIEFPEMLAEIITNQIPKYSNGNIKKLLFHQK
The experiment in a line: Transrepression Assay (GITAR), TNFα-β-lactamase reporter, U937 cells. The class given is cell-based. Details: U937 cells contain an endogenous glucocorticoid receptor (GR); endogenous in cells; host or cells: U937 cells stably transfected with the TNF-alpha promoter beta-lactamase reporter. The text has this: This assay assesses the ability of test compounds to control transcription from the TNFα-β-lactamase reporter gene in U937 cells, a human myelomonocytic leukemia cell line that naturally expresses the human GR. The assay measures compound dependent-repression of the TNFa promoter linked to a reporter gene.
The human U937 cells that had been stablely transfected with the TNF-α promoter driving […] are used for this assay. U937 cells contain an endogenous glucocorticoid receptor (GR). […] 50,000 cells/well are plated in 96 well black-walled plates the day of assay. Test compounds are added 10 μL/well, and cells are incubated at 37° C. for 30˜45 min. For assaying compounds, first dilute 1:10 in DMSO to make 1 mM, then further dilute 1:100 in medium to make 10× stock prior to adding to the cells. Add 50 ng/ml PMA (Sigma, cat#P8139) 10 μL/well to a final concentration 5 ng/ml, and 1 μg/ml LPS (Sigma, cat#L4130) 10 μL/well to a final concentration 100 ng/ml. Incubate cells at 37° C. overnight for ˜18 hr. PMA is stored frozen as 100 μg/ml stock in DMSO. Dilute 1:10 in DMSO for a working stock of […] and store at −20 C. For assaying, dilute the 10 μg/ml working stock 1:200 in medium to make a 10× solution (50 ng/ml). Store frozen LPS at 1 mg/ml in PBS, dilute 1:1000 in medium to make 10× (1 μg/ml) for the assay. Add 6× loading buffer (CCF2-AM) 20 μL/well, and incubate at room temperature for 70˜90 min. […] The activity repressed by 100 nM dexamethasone alone is set as 100% activity.

Data set [3] addresses T1, GR. The experiment in a line: GR Ligand Binding Assay (GR BIND), HeLa cell lysate, 3H-DEX. Details: endogenous in cells; host or cells: HeLa (ATCC) cell lysate supernatant. On the procedure: Binding Buffer: TEGM (10 mM Tris-HCl, 1 mM EDTA, 10% glycerol, 1 mM beta-mecaptoethanol, 10 mM Sodium Molybdate, pH 7.2)
Phenol red-free Trypsin-EDTA is diluted in the same PBS 1:10. The cell layers are rinsed with 1× Trypsin, extra Trypsin is poured out, and the cell layers are incubated at 37° C. for ˜2 min. The flask is tapped and checked for signs of cell detachment. Once the cells begin to slide off the flask, the complete media is added. The cells are counted at this point, then diluted to the appropriate concentration and split into flasks or dishes for further culturing (Usually 1:3 to 1:6 dilution).
The cell pellet is washed twice with TEGM (10 mM Tris-HCl, 1 mM EDTA, 10% glycerol, 1 mM beta-mercaptoethanol, 10 mM Sodium Molybdate, pH 7.2). […] The cell suspension is snap frozen in liquid nitrogen or ethanol/dry ice bath and transferred to −80° C. freezer on dry ice. Before setting up the binding assay, the frozen samples are left on ice-water to just thaw (˜1 hr). Then the samples are centrifuged at 12,500 g to 20,000 g for 30 min at 4° C. The supernatant is used to set-up assay right away. If using 50 μL of supernatant, the test compound can be prepared in 50 μL of the TEGM buffer.
1×TEGM buffer is prepared, and the isotope-containing assay mixture is prepared in the following order: EtOH (2% final concentration in reaction), 3H-DEX (Amersham Biosciences) and 1×TEGM. [e.g. For 100 samples, 200 μL (100×2) of EtOH+4.25 μL of 1:10 3H-Dex stock+2300 μL (100×23) 1×TEGM]. The compound is serially diluted, e.g., if starting final conc. is 1 μM, and the compound is in 25 μL of solution, for duplicate samples, 75 μL of 4×1 μM solution is made and 3 μL of 100 μM is added to 72 μL of buffer, and 1:5 serial dilution.
25 μL of 3H-DEX (6 nM) trace and 25 μl, compound solution are first mixed together, followed by addition of 50 μL receptor solution. The reaction is gently mixed, spun briefly at about 200 rpm and incubated at 4° C. overnight. 100 μL of 50% HAP slurry is prepared and added to the incubated reaction which is then vortexed and incubated on ice for 5 to 10 minutes. The reaction mixture is vortexed twice more to resuspend HAP while incubating reaction. The samples in 96-well format are then washed in wash buffer using The FilterMate™ Universal Harvester plate washer (Packard). The washing process transfers HAP pellet containing ligand-bound expressed receptor to Unifilter-96 GF/B filter plate (Packard). The HAP pellet on the filter plate is incubated with 50 μL of MICROSCINT (Packard) scintillint for 30 minutes before being counted on the TopCount microscintillation counter (Packard). IC50s are calculated using DEX as a reference.

Setting [4] is: pH 2, aqueous buffer, pH 2, read-out: Solubility At pH 2.
[5] abbreviates: U937 cells, inflection point, read-out: Transrepression U937 Cells GITAR IP.
The mark [6] stands for this setting: U-937, U937 cells, activity repressed by 100 nM dexamethasone set as 100%, read-out: Transrepression U937 Cells GITAR Emax.
[7] abbreviates: HeLa cell lysate, 3H-DEX, read-out: GR BIND Ki.

Usually solubility stands for the concentration that dissolves in the medium under given conditions. As usually defined, the Emax is the maximal effect, on the per cent scale that the assay sets. As for `CO[C@@]1(CCc2ccccc2Cl)CCC2=Cc3c(cnn3-c3ccc(F)cc3)C[C@@]21C` [Ex. 103 WO 04/075840 A2, reference compound], the solubility result in data set [1] (Table 4, literature compounds) was “poor”. Moreover, the EC50 in data set [2] (Table 4, literature compounds, read-out: GITAR IP) was 191 nM. Besides, the Emax in data set [2] (U-937, Table 4, literature compounds, read-out: GITAR EMAX) was 93.3%. The Ki in data set [3] (Table 4, literature compounds, read-out: GR BIND) stood at 0.23 nM.

As for `COc1ccnc(C(O)C[C@]2(O)CCC3=Cc4c(cnn4-c4ccc(F)cc4)C[C@@]32C)c1` (stereo partly drawn) [Example 3, (4αS,5R)-1-(4-fluorophenyl)-5-[2-hydroxy-2-(4-methoxypyridin-2-yl)ethyl]-4α-methyl-1,4,4α,5,6,7-hexahydrocyclopenta[f]indazol-5-ol], in data set [1] (setting [4]), the solubility came to 174 µM (≈ 75.8 µg/mL). Moreover, the EC50 in data set [2] (setting [5]) was 111 nM. In addition, the maximal response (Emax) in data set [2] (setting [6]) came out at 81.3%. In addition, the Ki in data set [3] (setting [7]) stood at 4.4 nM.

In the case of `C[C@]12Cc3cnn(-c4ccc(F)cc4)c3C=C1CC[C@@]2(O)CC(O)c1ncccc1F` (stereo partly drawn) [Example 4, (4αS,5R)-1-(4-fluorophenyl)-5-[2-(3-fluoropyridin-2-yl)-2-hydroxyethyl]-4α-methyl-1,4,4α,5,6,7-hexahydrocyclopenta[f]indazol-5-ol], the solubility in data set [1] (setting [4]) was less than 1 µM. Besides, in data set [2] (setting [5]), the EC50 amounted to 360 nM. Also, the Emax in data set [2] (setting [6]) came to 70.6%. Besides, the Ki in data set [3] (setting [7]) was determined as 7.2 nM.

Regarding `C[C@]12Cc3cnn(-c4ccc(F)cc4)c3C=C1CC[C@@]2(O)CC(O)c1ccc(C(F)(F)F)cn1` (stereo partly drawn) [Example 6, (4αS,5R)-1-(4-fluorophenyl)-5-{2-hydroxy-2-[5-(trifluoromethyl)pyridin-2-yl]ethyl}-4α-methyl-1,4,4α,5,6,7-hexahydrocyclopenta[f]indazol-5-ol], the solubility in data set [1] (setting [4]) was 4 µM (≈ 1.89 µg/mL). For the same compound, in data set [2] (setting [5]), the EC50 was 344 nM. The Emax in data set [2] (setting [6]) was determined as 76.2%. The Ki in data set [3] (setting [7]) amounted to 2.7 nM.

Consider `C[C@]12Cc3cnn(-c4ccc(F)cc4)c3C=C1CC[C@@]2(O)CC(O)c1cc(C#N)ccn1` (stereo partly drawn) [Example 9, 2-{2-[(4αS,5R)-1-(4-fluorophenyl)-5-hydroxy-4α-methyl-1,4,4α,5,6,7-hexahydrocyclopenta[f]indazol-5-yl]-1-hydroxyethyl}pyridine-4-carbonitrile], for which the solubility in data set [1] (setting [4]) was 104 µM (≈ 44.8 µg/mL). The EC50 in data set [2] (setting [5]) was 48 nM. Besides, the Emax in data set [2] (setting [6]) was determined as 74.9%. Also, the Ki in data set [3] (setting [7]) is 2.1 nM.

`Cc1ccnc(C(O)C[C@]2(O)CCC3=Cc4c(cnn4-c4ccc(F)cc4)C[C@@]32C)c1` (stereo partly drawn) [Example 11, (4αS,5R)-1-(4-fluorophenyl)-5-[2-hydroxy-2-(4-methylpyridin-2-yl)ethyl]-4α-methyl-1,4,4α,5,6,7-hexahydrocyclopenta[f]indazol-5-ol]: in data set [1] (setting [4]), the solubility is 193 µM (≈ 81 µg/mL). Besides, in data set [2] (setting [5]), the EC50 came out at 47.8 nM. In data set [2] (setting [6]), the Emax worked out at 69.1%. For the same compound, the Ki in data set [3] (setting [7]) stood at 3.9 nM.
